In ChEMBL document CHEMBL5316338, “Discovery of Novel PTP1B Inhibitors with Once-Weekly Therapeutic Potential for Type 2 Diabetes: Design, Synthesis, and In Vitro and In Vivo Investigations of BimBH3 Peptide Analogues” (J Med Chem, 2023):
Calls of active or inactive are those of the source. No cut-off for these calls is given here. Square brackets hold non-standard residues; d marks the D form. Peptide text beside a SMILES is read from it. * marks the point of attachment. ξ: configuration not given here. C18 diacid = O=C(O)CCCCCCCCCCCCCCCCC(=O)*; Myristoyl = CCCCCCCCCCCCCC(=O)*; ξR = N=C(N)NCCCC(N)C(=O)O

Key:
Mus musculus [1] = experiment: Antidiabetic activity against sc dosed C57BL/Ks db/db mouse assessed as reduction in glucagon level at 1 umol/kg by ELISA analysis; type: functional, organism-based; conditions: dose 1.0 µmol/kg
[2] = Toxicity in C57BL/Ks db/db mouse assessed as signs of distress at 1 uM/kg, sc administered for 2 weeks; type: organism-based; conditions: in vivo, 336 h
Mus musculus [3] = experiment: Antidiabetic activity against C57BL/Ks db/db mouse assessed as redcution in fasting blood glucose level at 1 umol/kg, sc administered once a week and measured on day 28 by glucometer analysis (reference value: 32.4 +/- 1.1 […]); type: functional; conditions: dose 1 µmol/kg, time 28 day
carboxypeptidase A = target: T1, carboxypeptidase A (Homo sapiens, UniProt P15085); experiment: Stability of compound assessed as carboxypeptidase A (unknown origin) mediated compound degradation by measuring half-life by RP-HPLC analysis; type: ADME
T1 sequence (P15085 whole entry): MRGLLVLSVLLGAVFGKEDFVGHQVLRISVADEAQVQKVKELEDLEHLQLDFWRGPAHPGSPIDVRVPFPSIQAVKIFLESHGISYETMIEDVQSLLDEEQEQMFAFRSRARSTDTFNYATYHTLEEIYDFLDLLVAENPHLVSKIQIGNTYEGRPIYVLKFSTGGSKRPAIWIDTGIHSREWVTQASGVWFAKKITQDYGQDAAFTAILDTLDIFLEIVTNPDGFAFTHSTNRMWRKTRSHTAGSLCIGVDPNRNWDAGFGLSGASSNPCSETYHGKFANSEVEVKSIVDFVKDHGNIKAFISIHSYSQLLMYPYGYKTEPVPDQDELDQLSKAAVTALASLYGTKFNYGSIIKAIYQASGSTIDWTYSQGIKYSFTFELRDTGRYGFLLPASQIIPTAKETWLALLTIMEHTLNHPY

Carboxypeptidase A1 = target: T2, Carboxypeptidase A1 (Homo sapiens, UniProt P15085); experiment: Stability of compound assessed as carboxypeptidase A (unknown origin) mediated compound degradation by measuring fold change of half-life by RP-HPLC analysis relative to BimBH312-mer peptide; type: ADME
T2 sequence (P15085 whole entry): T1 sequence (P15085 whole entry)

[4] = target: T3, Tyrosine-protein phosphatase non-receptor type 1 (Homo sapiens) (UniProt P18031); experiment: Inhibition of N-terminal His tagged recombinant human PTP1B expressed in Escherichia coli using pNPP as substrate assessed as substrate hydrolysis at 40 umol/L relative to control; conditions: dose 40.0 µmol/L
T3 sequence (whole entry): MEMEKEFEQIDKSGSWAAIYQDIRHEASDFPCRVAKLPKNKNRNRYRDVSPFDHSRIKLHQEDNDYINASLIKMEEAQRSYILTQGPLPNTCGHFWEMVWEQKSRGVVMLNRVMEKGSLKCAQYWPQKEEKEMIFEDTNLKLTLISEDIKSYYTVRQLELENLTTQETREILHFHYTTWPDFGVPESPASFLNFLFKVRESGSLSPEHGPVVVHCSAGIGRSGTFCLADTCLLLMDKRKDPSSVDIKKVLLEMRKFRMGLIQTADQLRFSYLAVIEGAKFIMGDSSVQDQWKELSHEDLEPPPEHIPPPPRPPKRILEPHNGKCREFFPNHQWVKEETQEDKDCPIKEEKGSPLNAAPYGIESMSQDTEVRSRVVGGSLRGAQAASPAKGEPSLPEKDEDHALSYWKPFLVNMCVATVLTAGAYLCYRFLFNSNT

Mus musculus [5] = experiment: Antidiabetic activity against C57BL/Ks db/db mouse assessed as redcution in fasting blood glucose level at 1 umol/kg, sc administered once a week and measured on day 24 by glucometer analysis (reference value: 30.2 +/- 3.2 […]); type: functional; conditions: dose 1 µmol/kg, time 24 day
Pepsin = experiment: Stability of compound assessed as Pepsin (unknown origin) mediated compound degradation by measuring half-life by HPLC analysis; type: ADME; conditions: human
[6] = Stability of compound assessed as Proteinase K (unknown origin) mediated compound degradation by measuring fold change of half-life by HPLC analysis relative to BimBH312-mer peptide; type: ADME
Homo sapiens = organism: Homo sapiens; experiment: Selectivity index, ratio of IC50 for inhibition of recombinant human TC-PTP (1 to 314 residues) expressed in baculovirus infected insect cells to IC50 for inhibition of N-terminal His-tagged recombinant human PTP1B expressed in Escherichia coli
[7] = target: T4, Tyrosine-protein phosphatase non-receptor type 1 (Homo sapiens, UniProt P18031); experiment: Inhibition of N-terminal His tagged recombinant human PTP1B expressed in Escherichia coli using pNPP as substrate assessed as substrate hydrolysis
T4 sequence (P18031 whole entry): T3 sequence (whole entry)

Mus musculus [8] = experiment: Antidiabetic activity against over-night fasted C57BL/ks db/db mouse assessed as suppression of increased blood glucose concentration at 1 uM/kg, sc pretreated with compound for 4 weeks followed by oral glucose stimulation and measured upto 120 mins by oral glucose tolerance test; type: functional, organism-based; conditions: time 40440.0 min
Mus musculus [9] = experiment: Antidiabetic activity against C57BL/Ks db/db mouse assessed as redcution in fasting blood glucose level at 1 umol/kg, sc administered once a week and measured on day 8 by glucometer analysis (reference value: 27.7 +/- 3.7 […]); type: functional; conditions: dose 1 µmol/kg, time 8 day
[10] = Toxicity in C57BL/Ks db/db mouse assessed as signs of discomfort at 1 uM/kg, sc administered for 2 weeks; type: organism-based; conditions: in vivo, 336 h
Chymotrypsin = Chymotrypsin (Homo sapiens, UniProt Q99895+P17538+P40313+Q6GPI1); experiment: Stability of compound assessed as chymotrypsin (unknown origin) mediated compound degradation by measuring fold change of half-life by RP-HPLC analysis relative to BimBH312-mer peptide; type: ADME, protein assay
Mus musculus [11] = experiment: Antidiabetic activity against C57BL/Ks db/db mouse assessed as redcution in fasting blood glucose level at 1 umol/kg administered subcutaneously and measured immediately by glucometer analysis (reference value: 19.0 +/- 2.7 […]); type: functional; conditions: dose 1 µmol/kg; route sc
[12] = Stability of compound assessed as Pepsin (unknown origin) mediated compound degradation by measuring fold change of half-life by HPLC analysis relative to BimBH312-mer peptide; type: ADME; conditions: human
[13] = target: T5, Tyrosine-protein phosphatase non-receptor type 2 (Homo sapiens, UniProt P17706); experiment: Inhibition of recombinant human TC-PTP (1 to 314 residues) expressed in baculovirus infected insect cells using pNPP as substrate assessed as substrate hydrolysis; design: species or system Insect cell
T5 sequence (P17706 whole entry): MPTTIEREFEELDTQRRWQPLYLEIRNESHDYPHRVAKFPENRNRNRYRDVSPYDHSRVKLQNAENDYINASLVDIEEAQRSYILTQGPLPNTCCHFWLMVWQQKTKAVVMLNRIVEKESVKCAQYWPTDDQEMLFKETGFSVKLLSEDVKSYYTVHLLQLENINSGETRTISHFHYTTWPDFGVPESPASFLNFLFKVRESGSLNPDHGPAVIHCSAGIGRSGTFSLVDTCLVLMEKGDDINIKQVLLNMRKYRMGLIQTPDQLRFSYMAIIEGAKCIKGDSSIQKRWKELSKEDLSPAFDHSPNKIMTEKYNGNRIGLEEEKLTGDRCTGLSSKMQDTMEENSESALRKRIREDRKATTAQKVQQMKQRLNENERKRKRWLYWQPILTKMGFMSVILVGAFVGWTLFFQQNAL

Mus musculus [14] = experiment: Antidiabetic activity against sc dosed C57BL/Ks db/db mouse assessed as reduction in serum insulin level at 1 umol/kg by ELISA analysis; type: functional, organism-based; conditions: dose 1.0 µmol/kg

half-life (carboxypeptidase A) | fold change (FC) (Carboxypeptidase A1) | inhibition [4] | half-life (Pepsin) | fold change (FC) [6] | IC50 [7] | fold change (FC) (Chymotrypsin) | fold change (FC) [12] | IC50 [13] | SMILES | Activity (Mus musculus [1]) | Activity [2] | Fasting blood glucose level (Mus musculus [3]) | Fasting blood glucose level (Mus musculus [5]) | Ratio IC50 (Homo sapiens) | Activity (Mus musculus [8]) | Fasting blood glucose level (Mus musculus [9]) | Activity [10] | Fasting blood glucose level (Mus musculus [11]) | Activity (Mus musculus [14])
1.02 h | 31.9 | > 50% | 0.65 h | 5.8 | 263 nM | 68.8 | 29.5 | > 50000 nM | CCCCCCCCCCCCCC(=O)N[C@H](C(=O)N[C@@H](C)C(=O)N[C@@H](CCC(N)=O)C(=O)N[C@@H](CCC(=O)O)C(=O)N[C@@H](CC(C)C)C(=O)N[C@@H](CCCNC(=N)N)C(=O)NC(CCCNC(=N)N)C(=O)N[C@H](C(=O)NCC(=O)N[C@@H](CC(=O)O)C(=O)N[C@@H](CCC(=O)O)C(=O)N[C@@H](Cc1ccccc1)C(=O)O)[C@@H](C)CC)[C@@H](C)CC (stereo partly drawn) (Myristoyl-IAQELR[ξR]IGDEF-OH) | Active | Non-Toxic | 15.6 mmol/L | 14.2 mmol/L | > 190 | Active | 10.3 mmol/L | Non-Toxic | 20.9 mmol/L | Active
4.51 h | 140.9 | > 50% | 6.77 h | 2.6 | 385 nM | 4.7 | 307.7 | > 50000 nM | CC[C@H](C)[C@H](NC(=O)CCCCCCCCCCCCCCCCC(=O)O)C(=O)N[C@@H](C)C(=O)N[C@@H](CCC(N)=O)C(=O)N[C@@H](CCC(=O)O)C(=O)N[C@@H](CC(C)C)C(=O)N[C@@H](CCCNC(=N)N)C(=O)NC(CCCNC(=N)N)C(=O)N[C@H](C(=O)NCC(=O)N[C@@H](CC(=O)O)C(=O)N[C@@H](CCC(=O)O)C(=O)N[C@@H](Cc1ccccc1)C(=O)O)[C@@H](C)CC (stereo partly drawn) ({C18 diacid}-IAQELR[ξR]IGDEF-OH) | Active | Non-Toxic | 18.4 mmol/L | 14.3 mmol/L | > 130 | Active | 11.1 mmol/L | Non-Toxic | 19.8 mmol/L | Active
